Experimental data reported in patent US8580794B2 (AbbVie Inc., priority 2009, dated 2013).

Molecular target: GST-Bc1-2 (Homo sapiens, UniProt P10415)
Assay: Time Resolved-Fluorescence Resonance Energy Transfer (TR-FRET) Bcl-2 binding assay with F-Bak peptide probe
Conditions: GST-Bcl-2 1 nM, F-Bak probe 100 nM, Tb-anti-GST 1 nM; '<' = below limit of detection; read-out: TR-FRET Bcl-2 Binding Ki
Experimental: The samples are then mixed on a shaker for 1 minute and incubated for an additional 3 hours at room temperature. For each assay, the probe/antibody and protein/probe/antibody were included on each assay plate as negative and positive controls, respectively.
The samples were then mixed on a shaker for 1 minute and incubated for an additional 3 hours at room temperature. For each assay, the probe/antibody and protein/probe/antibody were included on each assay plate as negative and positive controls, respectively.

GST-Bc1-2, sequence (P10415 whole entry): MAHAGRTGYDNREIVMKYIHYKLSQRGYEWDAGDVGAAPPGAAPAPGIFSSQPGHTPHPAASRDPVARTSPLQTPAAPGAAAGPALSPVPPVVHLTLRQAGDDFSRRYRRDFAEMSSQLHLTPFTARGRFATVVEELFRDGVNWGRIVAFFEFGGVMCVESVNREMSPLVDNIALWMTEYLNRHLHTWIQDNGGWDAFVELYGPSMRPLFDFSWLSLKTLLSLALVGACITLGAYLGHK

Row | Structure (SMILES) | Ki [nM]
1 | CC1(C)CCC(CN2CCN(c3ccc(C(=O)NS(=O)(=O)c4ccc(NCCC#N)c([N+](=O)[O-])c4)c(Oc4cnc5[nH]ccc5c4)c3)CC2)=C(c2ccc(Cl)cc2)C1 [Example 62, 4-(4-{[2-(4-chlorophenyl)-4,4-dimethylcyclohex-1-en-1-yl]methyl}piperazin-1-yl)-N-({4-[(2-cyanoethyl)amino]-3-nitrophenyl}sulfonyl)-2-(1H-pyrrolo[2,3-b]pyridin-5-yloxy)benzamide] | < 0.01
2 | CC1(C)CC(c2ccc(Cl)cc2)=C(CN2CCN(c3ccc(C(=O)NS(=O)(=O)c4ccc(N[C@H]5CC[C@@H](N6CCOCC6)CC5)c([N+](=O)[O-])c4)c(Oc4cnc5[nH]ccc5c4)c3)CC2)CO1 [Example 63, Cis-4-(4-{[4-(4-chlorophenyl)-6,6-dimethyl-5,6-dihydro-2H-pyran-3-yl]methyl}piperazin-1-yl)-N-({4-[(4-morpholin-4-ylcyclohexyl)amino]-3-nitrophenyl}sulfonyl)-2-(1H-pyrrolo[2,3-b]pyridin-5-yloxy)benzamide] | < 0.01
3 | CC1(C)CCC(CN2CCN(c3ccc(C(=O)NS(=O)(=O)c4ccc(N[C@H]5CC[C@H](N(CC6CC6)CC6CC6)CC5)c([N+](=O)[O-])c4)c(Oc4cnc5[nH]ccc5c4)c3)CC2)=C(c2ccc(Cl)cc2)C1 [Example 64, Trans-N-{[4-({4-[bis(cyclopropylmethyl)amino]cyclohexyl}amino)-3-nitrophenyl]sulfonyl}-4-(4-{[2-(4-chlorophenyl)-4,4-dimethylcyclohex-1-en-1-yl]methyl}piperazin-1-yl)-2-(1H-pyrrolo[2,3-b]pyridin-5-yloxy)benzamide] | < 0.01
4 | CN1CCC(CNc2ccc(S(=O)(=O)NC(=O)c3ccc(N4CCN(CC5=C(c6ccc(Cl)cc6)CC(C)(C)CC5)CC4)cc3Oc3cnc4[nH]ccc4c3)cc2[N+](=O)[O-])CC1 [Example 65, 4-(4-{[2-(4-chlorophenyl)-4,4-dimethylcyclohex-1-en-1-yl]methyl}piperazin-1-yl)-N-[(4-{[(1-methylpiperidin-4-yl)methyl]amino}-3-nitrophenyl)sulfonyl]-2-(1H-pyrrolo[2,3-b]pyridin-5-yloxy)benzamide] | < 0.01
5 | CC1(C)CCC(CN2CCN(c3ccc(C(=O)NS(=O)(=O)c4ccc(NCC5COCCN5)c([N+](=O)[O-])c4)c(Oc4cnc5[nH]ccc5c4)c3)CC2)=C(c2ccc(Cl)cc2)C1 (stereo not shown) [Example 66, 4-(4-{[2-(4-chlorophenyl)-4,4-dimethylcyclohex-1-en-1-yl]methyl}piperazin-1-yl)-N-({4-[(morpholin-3-ylmethyl)amino]-3-nitrophenyl}sulfonyl)-2-(1H-pyrrolo[2,3-b]pyridin-5-yloxy)benzamide] | < 0.01
6 | CN1CCN(Nc2ccc(S(=O)(=O)NC(=O)c3ccc(N4CCN(CC5=C(c6ccc(Cl)cc6)CC(C)(C)OC5)CC4)cc3Oc3cnc4[nH]ccc4c3)cc2[N+](=O)[O-])CC1 [Example 67, 4-(4-{[4-(4-chlorophenyl)-6,6-dimethyl-5,6-dihydro-2H-pyran-3-yl]methyl}piperazin-1-yl)-N-({4-[(4-methylpiperazin-1-yl)amino]-3-nitrophenyl}sulfonyl)-2-(1H-pyrrolo[2,3-b]pyridin-5-yloxy)benzamide] | < 0.01
7 | CC1(C)CCC(CN2CCN(c3ccc(C(=O)NS(=O)(=O)c4ccc(OCC#CCN5CCOCC5)c([N+](=O)[O-])c4)c(Oc4cnc5[nH]ccc5c4)c3)CC2)=C(c2ccc(Cl)cc2)C1 [Example 68, 4-(4-{[2-(4-chlorophenyl)-4,4-dimethylcyclohex-1-en-1-yl]methyl}piperazin-1-yl)-N-({4-[(4-morpholin-4-ylbut-2-ynyl)oxy]-3-nitrophenyl}sulfonyl)-2-(1H-pyrrolo[2,3-b]pyridin-5-yloxy)benzamide] | 0.012
